# Measured values as given in patent US12343377B2, “Combination therapies comprising a hypomethylation agent for treating cancer” (ALX Oncology Inc., priority 2020, dated 2025).
# Legend:
# [1] = tested on: calreticulin on the surface of MV4-11 cells; test: Analysis of calreticulin cell-surface expression, MV4-11; type: cell-based, human; conditions: for expression of the pro-phagocytic signal calreticulin in the MV411 AML cell line: FIG. 3B
# Method: (§1) To detect changes in calreticulin expression levels in human acute myeloid leukemia cell lines HL60, OCI-AML3 and MV4-11, cells were incubated with either 2.5 pM or 75 nM of azacitidine (Selleckchem) in complete growth medium (RPMI1640, 10% FBS) in a 37° C. 5% CO2 incubator for 72 hrs. Cells grown in complete growth medium was used as a control for calreticulin baseline expression. After incubation, cells were harvested and washed once in staining buffer (PBS, 2% FBS), stained in PBS with fixable live/dead stain (Invitrogen) for 1 hour at 4° C., washed once in staining buffer and incubated with 500 ng/mL of calreticulin-AF647 (clone 1G6A7, Novus). After a 1 hour incubation at 4° C., cells were washed twice in staining buffer and fixed in 0.5% paraformaldehyde. Cells were analyzed on an Attune (ThermoScientific), and subsequent data analysis using Flowjo 10.6.
# (§2) HL60 is a TP53null FLT3 wt cell line; OCI-AML3 is TP53 wt and FLT3 wt; and MV4-11 is TP53 wt and FLT3-ITD.
# (§3) The effect of azacitidine or venetoclax on the expression levels of calreticulin on the cell surfaces of MV4-11 and primary AML cells from two different human patients was also tested.
# [2] = tested on: calreticulin on primary AML blasts; test: Analysis of calreticulin cell-surface expression, primary AML blasts; type: cell-based; conditions: two human patients; FIG. 3B
# Method: as §3
# [3] = tested on: CD47 on the cell surfaces of MV4-11; test: CD47 cell-surface expression, MV4-11; type: cell-based, human; conditions: FIG. 3C
# Method: (§4) In another set of assays, the effect of azacitidine or venetoclax on the expression levels of CD47 on the cell surfaces of MV4-11 and primary AML cells from two different human patients was tested.
# [4] = tested on: CD47 on primary AML blasts; test: CD47 cell-surface expression, primary AML blasts; type: cell-based; conditions: two human patients; FIG. 3C
# Method: as §4
# [5] = cited from earlier work
# [6] = tested on: HL60-LUC2 acute myeloid leukemic model; test: Disseminated HL60-LUC2 systemic leukemic model, Drug A and venetoclax; conditions: monotherapy; Drug A 30 mg/kg IP, venetoclax 100 mg/kg oral gavage, Q3D 5 doses; FIG. 8
# Method: The HL60LUC2 (ATCC) cell line was injected through the tail vein of NOD-SCID female mice at a concentration of 7.5×10^6 cells per in RPMI 1640. Bioluminescence imaging (BLI) acquisition and analysis were performed using the IVIS Spectrum (Perkin Elmer) to monitor tumor growth. Firefly D-luciferin (Regis Technologies) was diluted to 15 mg/ml stock in phosphate-buffered saline and filtered before use. Groups of mice were placed in the specimen chamber and injected with 200 μl of D-luciferin intraperitoneally (IP). BLI whole-body signal was acquired at approximately 10 minutes post injection. BLI flux values were serially monitored twice a week with initial scans acquired three days post inoculation of mice. Living Image Software (Perkin Elmer) was used to quantify BLI average total flux values (photons/second, p/s) following the manual construction of regions of interest over the entire mouse body. […] Drug A-treated mice were dosed by IP injection at 30 mg/kg, five times total at three days apart. Animals were sacrificed when the total flux reached 1E11 or loss in body weight of greater than 20%.
# Venetoclax and Drug A therapies were initiated 4 days post engraftment and dosed every 3 days for a total of 5 doses.
# HL60 cells = test: In vitro phagocytosis assay, HL60 cells by human monocyte-derived macrophages; type: cell-based; conditions: single agent, compared to untreated cells; FIG. 1A
# Method: CD14^+ monocytes were purified by negative selection using the Classical Monocytes Isolation Kit, human (Miltenyi Biotec) and LS columns (Miltenyi Biotec) according to the manufacturer's protocol. CD14^+ monocytes were seeded into 150 mm tissue culture dishes (Corning) at 6 million cells per dish in 25 mL medium comprised of RPMI complete media, supplemented with 50 ng/mL M-CSF (Miltenyi Biotec), 10% FBS (Thermo Fisher Scientific), 1% penicillin/streptomycin, and 1% GlutaMAX. Cells were cultured for seven to eleven days.
# Target cells, HL60 and OCI-AML3 cells, were washed once in PBS and labeled with the Celltrace CFSE Cell Proliferation kit (Thermo Fisher Scientific) in suspension with 300 nM CFSE (carboxyfluorescein succinimidyl ester) according to the manufacturer's instructions and resuspended in RPMI complete media. Target cells were incubated overnight with two-fold serial dilutions of azacitidine between 39 nM to 2.5 μM in RPMI complete media. Prior to incubation with macrophages, cells were resuspended in RPMI. Macrophages were detached from culture plates by washing once with PBS and incubation in TrypLE Select for 20 minutes at 37° C. […]
# Briefly HL60 cells and OCI-AML3 cells (i.e., “target cells”) were labeled with CFSE (carboxyfluorescein succinimidyl ester) and treated with azacitidine (aza) for 48 hours. […] Macrophage cells were pelleted, stained, and analyzed via flow cytometry. […]
# [7] = Human PBMC viability assay; type: cell-based; conditions: CD11c+ dendritic cells in human PBMC cultures, 1.25 pM azacitidine alone, FIG. 2, read-out: reduction of the viability of CD11c^+ dendritic cells
# Method: PBMCs were counted and plated in complete RPMI. Drug A alone or in combination azacitidine was added to the PBMCs. Following 72-hour or five day incubation at 37° C., cells were stained with a fixable viability dye followed by staining with cell surface markers: CD3, CD19, CD14, CD56, CD16, CD11c, and HLADR (Biolegend). Cells were processed for flow cytometry by Attune NxT and analyzed by FlowJo 10.3. Viability gating strategy included double singlet exclusion by FSC height and FSC width followed by cell type surface marker then viability gate. CD11c DCs were identified as lineage negative (CD3, CD19, CD14, CD16 and CD56) HLADR^+ CD11c^+. Percent viable cells were tabulated using GraphPad Prism 8.
# Dendritic cells (DCs) are antigen-presenting cells (also known as accessory cells) of the mammalian immune system. They are believed to act as messengers between the innate and the adaptive immune systems.
# [8] = tested on: calreticulin on the surface of HL60 cells; test: Analysis of calreticulin cell-surface expression, HL60; type: cell-based, human; conditions: with increased concentrations of azacitidine, 72 hrs; FIG. 3A
# Method: as §1, §2
# [9] = tested on: calreticulin on the surface of OCI-AML3 cells; test: Analysis of calreticulin cell-surface expression, OCI-AML3; type: cell-based, human; conditions: with increased concentrations of azacitidine, 72 hrs; FIG. 3A
# Method: as §1, §2
# HL60 tumor xenografts = test: Subcutaneous HL60 leukemia xenograft model; type: in vivo, mice
# Method: (§5) Tumors were monitored until average size of all tumors reached 105 mm^3 for HL60, 75 mm^3 for MV4-11 and 112 mm^3 for OCI-AML3. […] Mice in HL60 and OCI-AML3 tumor models were dosed intraperitoneally (IP) five times, three days apart at 5 mg/kg for azacitidine, and six times, three days apart at 10 mg/kg for Drug A. MV4-11 tumor bearing mice were dosed IP three times per week at 5 mg/kg for azacitidine and 10 mg/kg for Drug A. Tumors were measured in two dimensions with calipers and tumor volume was calculated as: length×width×width×0.5, where length was the larger of the two measurements. Animals were sacrificed when tumor reached a volume of ˜2000 mm^3.
# (§6) In this Example, the anti-tumor activity of Drug A in combination with azacitidine (aza) was assessed mice bearing either HL60, OCI-AML3 and MV4-11 human leukemia tumor xenografts. (See Example 1 for experimental details.) HL60 is a TP53null FLT3 wt cell line; OCI-AML3 is TP53 wt and FLT3 wt; and MV4-11 is TP53 wt and FLT3-ITD.
# (§7) Mice bearing HL60 xenografted tumors were randomized to 4 groups of 4-5 mice each. One group of mice was given (a) Drug A at 10 mg/kg IP (Q3D, 6 doses total), (b) aza at 5 mg/kg IP (Q3D, 5 doses total), (c) both Drug A and aza (at the doses and administration schedule for each single agent), or (d) vehicle. Mice bearing OCI-AML3 xenografts were similarly randomized and treated. […]
# [10] = tested on: OCI-AML3 tumor xenografts; test: Subcutaneous OCI-AML3 leukemia xenograft model; type: in vivo, mice; conditions: day 20, Drug A 10 mg/kg IP Q3D 6 doses, aza 5 mg/kg IP Q3D 5 doses
# Method: as §5, §6, §7
# MV4-11 tumor xenografts = test: Subcutaneous MV4-11 leukemia xenograft model; type: in vivo, mice; conditions: day 26, Drug A 10 mg/kg and aza 5 mg/kg IP three times per week
# Method: as §5, §6
# Mice bearing MV4-11 xenografts were randomized into 4 groups of 9-10 each. One group of mice was given Drug A at 10 mg/kg IP (3 times per week), the second group of mice was given aza at 5 mg/kg IP (three times per week), the third group was given both Drug A and aza (at the doses and administration schedule for each single agent, and the fourth group was given vehicle. […]
# [11] = tested on: HL60-LUC2 acute myeloid leukemic model; test: Disseminated HL60-LUC2 systemic leukemic model, Drug A and azacitidine; type: in vivo, mice
# Method: After transplantation of HL60-LUC2 cells by intravenous tail injection into immunodeficient NSG mice (7.5E6 cells/animal), engraftment was confirmed by bioluminescence imaging and mice were randomized into 4 groups (10 mice/group). Treatment was performed as shown Table A below.
# Treatment was continued until mice received 14 doses of single agent Drug A, single agent azacitidine, or Drug A in combination with azacitidine.
# MCL-1 = MCL-1 (Homo sapiens, UniProt Q07820); conditions: selectivity profile; cited from earlier work
# MCL-1, sequence (Q07820 whole entry, species assumed): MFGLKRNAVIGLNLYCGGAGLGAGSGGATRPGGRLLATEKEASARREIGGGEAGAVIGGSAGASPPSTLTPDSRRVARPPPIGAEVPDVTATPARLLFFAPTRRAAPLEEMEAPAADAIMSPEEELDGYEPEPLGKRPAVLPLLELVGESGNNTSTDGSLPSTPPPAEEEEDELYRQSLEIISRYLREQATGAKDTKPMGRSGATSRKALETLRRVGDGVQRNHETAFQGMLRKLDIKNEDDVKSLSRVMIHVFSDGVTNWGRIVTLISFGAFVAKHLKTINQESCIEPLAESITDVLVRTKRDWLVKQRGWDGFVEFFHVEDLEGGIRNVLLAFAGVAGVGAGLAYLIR
# BFL-1 (BCL2A1/A1) = target: T1, BFL-1 (BCL2A1/A1) (Homo sapiens, UniProt Q16548); conditions: selectivity profile; cited from earlier work
# T1 sequence (Q16548 1-175): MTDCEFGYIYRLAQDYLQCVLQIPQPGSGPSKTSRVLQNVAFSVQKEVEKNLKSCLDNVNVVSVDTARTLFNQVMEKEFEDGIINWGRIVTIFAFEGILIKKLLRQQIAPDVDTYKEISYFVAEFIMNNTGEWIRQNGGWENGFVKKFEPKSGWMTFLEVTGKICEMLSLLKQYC
# BCL-XL = BCL-XL (Homo sapiens, UniProt Q07817); conditions: selectivity profile; cited from earlier work
# BCL-XL, sequence (Q07817 whole entry, species assumed): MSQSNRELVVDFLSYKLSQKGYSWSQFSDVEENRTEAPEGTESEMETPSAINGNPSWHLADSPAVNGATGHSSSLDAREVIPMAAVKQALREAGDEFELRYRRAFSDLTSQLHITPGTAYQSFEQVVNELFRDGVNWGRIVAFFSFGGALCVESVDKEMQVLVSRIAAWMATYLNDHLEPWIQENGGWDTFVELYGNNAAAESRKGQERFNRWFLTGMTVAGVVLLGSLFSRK
# [12] = tested on: BCL-XL-dependent cells, such as platelets; conditions: cited from earlier work
compound,measurement,setting,value
"CC1(C)CCC(CN2CCN(c3ccc(C(=O)NS(=O)(=O)c4ccc(NCC5CCOCC5)c([N+](=O)[O-])c4)c(Oc4cnc5[nH]ccc5c4)c3)CC2)=C(c2ccc(Cl)cc2)C1 [venetoclax, 4-(4-{[2-(4-chlorophenyl)-4,4dimethylcyclohex-1-en-1-yl]methyl}piperazin-1-yl)-N-({3-nitro-4-[(tetrahydro-2H-pyran-4ylmethyl)amino]phenyl}sulfonyl)-2-(1H-pyrrolo[2,3-b]pyridin-5-yloxy)benzamide]",expression of the pro-phagocytic signal calreticulin in the MV411 AML cell line,[1],increase
same,expression of the pro-phagocytic signal calreticulin in primary AML blasts,[2],increase
same,expression of the anti-phagocytic signal CD47 in the MV411 AML cell line,[3],increase
same,expression of the anti-phagocytic signal CD47 in primary AML blasts,[4],increase
same,aqueous solubility,[5],very low
same,tumor growth,[6],moderate tumor growth inhibition
"Nc1ncn([C@@H]2O[C@H](CO)[C@@H](O)[C@H]2O)c(=O)n1 [azacitidine, 4-amino-1-[(2R,3R,4S,5R)-3,4-dihydroxy-5-(hydroxymethyl)oxolan-2-yl]-1,3,5-triazin-2-one]",macrophage-mediated phagocytosis of HL60 cells,HL60 cells,stimulated macrophage-mediated phagocytosis of HL60 cells slightly
same,cytotoxicity at 1.25 pM,[7],~40%
same,expression of calreticulin on the surface of HL60 cells,[8],increased
same,expression of calreticulin on the surface of OCI-AML3 cells,[9],increased
same,expression of the pro-phagocytic signal calreticulin in the MV411 AML cell line,[1],increase
same,expression of calreticulin on the surface of MV4-11 cells,"[1]; with increased concentrations of azacitidine, 72 hrs, FIG. 3A",increased
same,expression of the pro-phagocytic signal calreticulin in primary AML blasts,[2],increase
same,expression of the anti-phagocytic signal CD47 in the MV411 AML cell line,[3],increase
same,expression of the anti-phagocytic signal CD47 in primary AML blasts,[4],increase
same,HL60 tumor growth,"HL60 tumor xenografts; day 20, compared to vehicle control, FIG. 4A",minimally inhibited
same,% tumor growth inhibition (TGI),"HL60 tumor xenografts; day 20, HL60, Drug A 10 mg/kg IP Q3D 6 doses, aza 5 mg/kg IP Q3D 5 doses",42%
same,% tumor growth inhibition (TGI),[10],33%
same,% tumor growth inhibition (TGI),MV4-11 tumor xenografts,49%
same,tumor growth,"[11]; 14 doses, Drug A 30 mg/kg, azacitidine 5 mg/kg, FIG. 5C",moderate tumor growth inhibition
same,Day by which all mice succumbed,"[11]; second set of experiments, single agent, Q3D 14 doses, FIG. 5D",~85 days
"O=C(c1cc(-c2cc3c(cc2C(=O)N2Cc4ccccc4C[C@H]2CN2CCOCC2)OCO3)n2c1CCCC2)N(c1ccccc1)c1ccc(O)cc1 [Drug S55746, (S)—N-(4-hydroxyphenyl)-3-(6-(3-(morpholinomethyl)-1,2,3,4-tetrahydroisoquinoline-2-carbonyl)benzo[d][1,3]dioxol-5-yl)-N-phenyl-5,6,7,8-tetrahydroindolizine-1-carboxamide]",binding to MCL-1,MCL-1,no significant binding
same,binding to BFL-1 (BCL2A1/A1),BFL-1 (BCL2A1/A1),no significant binding
same,affinity for BCL-XL,BCL-XL,poor affinity
same,"cytotoxic activity on BCL-XL-dependent cells, such as platelets",[12],no cytotoxic activity
